The record followed here is ChEMBL document CHEMBL1201862, “PubChem BioAssay data set” (2004).

Test in all cases: NCI tumour cell line growth inhibition, 48 h
In assay [1] the test system is HCT-15.
Assay [2] concerns A549.
For assay [3], the system named is SK-MEL-5.
For assay [4], the system named is NCI-H460.
The test system of assay [5] is EKVX.
Assay [6] concerns 786-0.
In assay [7] the test system is UACC-62.
Assay [8] has as its system HOP-92.
Assay [9] deals with LOX IMVI.
Assay [10] has as its system TK-10.
The test system of assay [11] is SNB-75.
Assay [12] relates to HOP-62.
Assay [13] deals with HCT-116.
Assay [14] deals with OVCAR-5.
For assay [15], the system named is UACC-257.
Assay [16] has as its system Malme-3M.
Assay [17] has as its system RXF 393.
In assay [18] the test system is SK-MEL-28.
Assay [19] deals with OVCAR-8.

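Each compound was tested at five concentrations against cells in 96-well plates for 48 hours. At the GI50, growth is halved.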 Activity calls are given as the source filed them. Rule as the data show it: active = GI50 up to about 1.1 µM and inactive = higher.

Consider `CCOc1ccccc1-c1nc2c(s1)C(=O)c1ccccc1C2=O`, for which the GI50 in assay [1] was 25.7 µM; in assay [2] it was 17.1 µM (inactive); in assay [3] it was 5.12 µM (inactive); in assay [4], 18.7 µM (inactive); in assay [5], 17.2 µM (inactive); in assay [6] it was 16.9 µM (inactive). Further, the GI50 in assay [7] was 3.78 µM (inactive); in assay [8] it was 12 µM (inactive); in [9] it was 4.37 µM (inactive); in assay [10] it was 19.3 µM (inactive); in assay [11] it was 11.4 µM (inactive); in assay [12], 15.4 µM (inactive). Also, the GI50 is 15.2 µM (inactive) in [13]; 19.7 µM (inactive) in assay [14]; 12.9 µM (inactive) in assay [15]; 3.68 µM (inactive) in [16]; 16 µM (inactive) in assay [17]; 16.7 µM (inactive) in [18].

In the case of `Cc1cc(C)c2c(c1)CN1CN2Cc2cc(C)cc(C)c21`, the GI50 is greater than 10 µM in [1]; 27.2 µM (inactive) in [2]; 15.9 µM (inactive) in assay [4]; 16.9 µM (inactive) in assay [5]; 17.2 µM (inactive) in assay [6]; 16 µM (inactive) in [7]. For the same compound, the GI50 was > 10 µM (inactive) in [8]; 17 µM (inactive) in assay [9]; 19 µM (inactive) in assay [10]; 4.36 µM (inactive) in assay [11]; 18.7 µM (inactive) in assay [12]; 19.4 µM (inactive) in [13]. The GI50 in assay [19] is 17.8 µM (inactive); in [14] it was 55.1 µM (inactive); in assay [17] it was 6.68 µM (inactive); in assay [18], 16.5 µM (inactive).

In the case of `c1csc(-c2sc(-c3ccsc3)cc2Cc2ccsc2)c1`, the GI50 is greater than 10 µM in assay [1]; > 10 µM (inactive) in [2]; > 10 µM (inactive) in assay [3]; > 10 µM (inactive) in [5]; > 10 µM (inactive) in assay [6]; > 10 µM (inactive) in assay [7]. Further, the GI50 in assay [8], in assay [9], in [10], in assay [11], in [12] and in [19] was > 10 µM (inactive) in each case. The GI50 in assay [15], in [16], in [17] and in [18] was > 10 µM (inactive) each time.

In the case of `CCOC(=O)C(=O)Nc1ccccc1C`, the GI50 in assay [1] is greater than 100 µM; in [2], > 100 µM (inactive); in assay [3], > 100 µM (inactive); in assay [4] it was > 100 µM (inactive); in assay [5], > 100 µM (inactive); in assay [6] it was > 100 µM (inactive). Besides, the GI50 in [7], in [8], in [9], in [10], in assay [11] and in assay [12] was > 100 µM (inactive) in each case. The GI50 in [13], in [19], in assay [14], in assay [16], in [17] and in assay [18] was > 100 µM (inactive) throughout.

`O=C1Cc2ccccc2N1/N=C\c1ccc([N+](=O)[O-])cc1`: the GI50 in assay [1] is greater than 100 µM; in assay [2], > 100 µM (inactive); in [3], > 100 µM (inactive); in assay [4], > 100 µM (inactive); in assay [5], > 100 µM (inactive); in [6], > 100 µM (inactive). The GI50 was > 100 µM (inactive) in [7]; > 100 µM (inactive) in assay [8]; > 100 µM (inactive) in assay [9]; > 100 µM (inactive) in assay [10]; 54.8 µM (inactive) in assay [11]; > 100 µM (inactive) in assay [12]. Besides, the GI50 in assay [13], in [19], in [14], in assay [15], in assay [16] and in assay [18] was > 100 µM (inactive) each time.

For the compound `O=C(OCc1ccccc1)c1ccccc1-c1c2ccc(=O)cc-2oc2cc(OCc3ccccc3)ccc12`, the GI50 is 9.84 µM in assay [1]; 6.7 µM (inactive) in assay [2]; 5.86 µM (inactive) in assay [3]; 15.7 µM (inactive) in assay [4]; 6.61 µM (inactive) in [5]; 15.1 µM (inactive) in assay [6]. Moreover, the GI50 was 10.2 µM (inactive) in [7]; 3.56 µM (inactive) in assay [8]; 6.43 µM (inactive) in assay [9]; 9.46 µM (inactive) in assay [13]; 12.1 µM (inactive) in assay [19]; 19.8 µM (inactive) in assay [14]. Moreover, the GI50 in assay [15] was 8.95 µM (inactive); in assay [16] it was 12.1 µM (inactive); in assay [17], 14.4 µM (inactive); in assay [18], 21.4 µM (inactive).

Turning to `NC(=O)c1cn(Cc2ccccc2)c(=O)n1Cc1ccccc1`, the GI50 is greater than 100 µM in [1]; > 100 µM (inactive) in [2]; > 100 µM (inactive) in assay [3]; > 100 µM (inactive) in assay [4]; > 100 µM (inactive) in [5]; > 100 µM (inactive) in [6]. The GI50 in assay [7], in assay [8], in assay [9], in [10], in [11] and in [12] was > 100 µM (inactive) in each case. Further, the GI50 in [13], in assay [19], in assay [14], in [15], in [17] and in [18] was > 100 µM (inactive) each time.

Turning to `O=C(O)c1ccc(Nc2nc3nn(Cc4ccccc4)cc3c(=O)s2)cc1`, the GI50 in assay [1] was greater than 100 µM; in [2], > 100 µM (inactive); in [3] it was > 100 µM (inactive); in assay [4] it was > 100 µM (inactive); in assay [5], > 100 µM (inactive); in assay [6], > 100 µM (inactive). In addition, the GI50 in assay [8], in assay [9], in assay [10], in assay [12], in assay [13] and in [19] was > 100 µM (inactive) each time. In addition, the GI50 in assay [14], in assay [15], in assay [16], in assay [17] and in [18] was > 100 µM (inactive) throughout.

In the case of `COC(=O)NC12CC3CC(CC(F)(C3)C1)C2`, the GI50 in assay [2], in [4], in assay [5], in assay [6], in assay [7] and in assay [8] was > 100 µM (inactive) throughout. The GI50 in assay [9] was > 100 µM (inactive); in assay [10], > 100 µM (inactive); in assay [11], 19.7 µM (inactive); in assay [12], > 100 µM (inactive); in [13] it was > 100 µM (inactive); in assay [19], > 100 µM (inactive). The GI50 in assay [14], in assay [15], in assay [16], in assay [17] and in [18] was > 100 µM (inactive) throughout.

For `O=C(CCC(=O)Nc1cccc(Cl)c1)CC(=O)c1ccc(F)cc1`, the GI50 was greater than 100 µM in assay [1]; > 100 µM (inactive) in [2]; > 100 µM (inactive) in assay [4]; > 100 µM (inactive) in assay [6]; > 100 µM (inactive) in [7]; > 100 µM (inactive) in assay [8]. Also, the GI50 in assay [9], in [10], in assay [11], in assay [12], in [13] and in [19] was > 100 µM (inactive) throughout. Also, the GI50 in assay [14], in [15], in [16] and in assay [18] was > 100 µM (inactive) throughout.

Turning to `CCOC(=O)[C@]12C3C=CC(C3)C1C(=O)C1OC12` (stereo not given in full), the GI50 in assay [1] is greater than 100 µM; in assay [2], > 100 µM (inactive); in [3], > 100 µM (inactive); in assay [4] it was > 100 µM (inactive); in assay [5], > 100 µM (inactive); in assay [6] it was > 100 µM (inactive). The GI50 was > 100 µM (inactive) in [7]; 0.109 µM (active) in assay [8]; > 100 µM (inactive) in assay [9]; > 100 µM (inactive) in assay [10]; 81.5 µM (inactive) in assay [11]; > 100 µM (inactive) in assay [12]. For the same compound, the GI50 in assay [13], in assay [19], in [14], in [15], in assay [16] and in [18] was > 100 µM (inactive) each time.

Regarding `Cc1cccc(N(CC(=O)O)S(=O)(=O)c2ccccc2)c1`, the GI50 is greater than 100 µM in assay [1]; > 100 µM (inactive) in assay [2]; > 100 µM (inactive) in [3]; > 100 µM (inactive) in assay [4]; > 100 µM (inactive) in [5]; > 100 µM (inactive) in [6]. Moreover, the GI50 in assay [7], in assay [8], in assay [9], in assay [10], in assay [11] and in assay [19] was > 100 µM (inactive) in each case. The GI50 in assay [14], in assay [15], in [16], in assay [17] and in assay [18] was > 100 µM (inactive) each time.
